Test results taken from patent US20240114903A1, “SYNERGISTIC MIXTURES COMPRISING PYRETHRUM FOR ARTHROPOD TOXICITY AND REPELLENCY” (University of Florida Research Foundation, Incorporated, priority 2021, published 2024).
Where a name gives a salt, the structure may show the parent alone. Read-outs that look alike come from different tables or passages of the source.

Key:
[1] = tested on: Orlando strain Aedes aegypti females; conditions: essential oil or PBO alone, topical
Description: Plant essential oils were obtained from Berje, Inc. (Carteret, NJ, USA). […] Sucrose for sugar water was obtained from Domino (Baltimore, MD, USA).
Pupae were provided by the USDA prior to experiments.
J. Med. Entomol. […] Topical applications were performed by anesthetizing adult female mosquitoes on ice for 5 min, and then placing them on a cold, glass Petri dish to prevent reanimation. A Whatman No. 2 filter paper was used to prevent mosquitoes from coming in contact with excess condensation. A 0.2 μL volume of each treatment was applied to the pronotum of each mosquito using a Hamilton (Reno, NV, USA) repeating applicator with a gastight Hamilton syringe and placed in 470 mL deli paper cups. […] Ten mosquitoes were treated for each concentration representing one replicate, and at least three different cohorts of mosquitoes were used for each concentration in an effort to control for biological variability in the mosquitoes produced by the Orlando colony. A cohort was defined as a distinct rearing group (i.e., adult mosquitoes obtained from distinct batches of eggs placed in water to initiate development each week). Controls were performed using the vehicle, ethanol. Tulle fabric, fastened to the cup with a deli cup lid rim (center removed), was used to keep mosquitoes from escaping. Deli cups containing ten treated mosquitoes per concentration per replicate were placed in an incubator for the remainder of the experimental interval and kept at the same temperature and light cycle as during rearing. Knockdown, defined as the inability to fly or maintain normal standing posture, was recorded at 1 h, and mortality was recorded at 24 h. Mortality was defined as no movement, even after gently tapping the cup several times to assess response.
VI. Potentiation and antagonism of organophosphorus and carbamate insecticides. Econ. Entomol. […] To compare effects at discrete doses to one another or between those and control, an ANOVA (α=0.05) with a Tukey's post-test was used with an α value of 0.05.

[2] = tested on: female Aedes aegypti mosquitoes; format: in vivo; conditions: screened individually at the sublethal concentrations used in the mixtures (TCA 10, TFA 50 μg/cm^2)

Structure (SMILES)	1 h % Knockdown ± SE, Synergist ([1]; 2 μg/insect) [%]	24 h % Mortality ± SE, Synergist ([1]; 2 μg/insect) [%]	1 h % Knockdown ± SE, Synergist ([1]; 10 μg/insect) [%]	24 h % Mortality ± SE, Synergist ([1]; 10 μg/insect, listed as Piperonyl butoxide (PBO))	toxicity by themselves [2]
CCCCOCCOCCOCc1cc2c(cc1CCC)OCO2 [PBO, Piperonyl butoxide]	6.7 ± 3.7	6.7 ± 2.4	21.7 ± 4	statistically significant	
CC(C)=CC1C(C(=O)O)C1(C)C (stereo not drawn) [TCA, 1R-trans-chrysanthemic acid]					no toxicity
CC1(C)[C@H](C=C(Cl)Cl)[C@H]1C(=O)O [TFA, (1R,3S)-3-(2,2-dichloroethenyl)-2,2-dimethylcyclopropanecarboxylic acid]					no toxicity
